Laboratory results reported in patent US9630977B2, “Cephalosporin derivatives and pharmaceutical compositions thereof” (Legochem Biosciences, Inc., priority 2011, dated 2017).
Converted amounts (≈) assume the structure as drawn. Where two headings read alike, the source gives them in different places.

Legend:
Format in all cases: cell-based
[1] = tested on: A. baumannii 46; experiment: In vitro antibacterial activity test (broth microdilution); conditions: A. baumannii 46
How it was run: (§1)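 Stocks at 10,240 ug/mL in DMSO, serially diluted in DMSO then water to final 0.0626–128 ug/mL (2.5% V/V DMSO). CLSI broth microdilution; MIC90, ug/mL.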

[2] = tested on: A. baumannii 49; experiment: as above; conditions: A. baumannii 49
How it was run: as §1

[3] = tested on: A. baumannii 52; experiment: as above; conditions: A. baumannii 52
How it was run: as §1

[4] = tested on: A. calcoaceticus ATCC15473; experiment: as above; conditions: A. calcoaceticus ATCC15473
How it was run: as §1

[5] = tested on: E. cloacae β19; experiment: as above
How it was run: as §1

[6] = tested on: E. coli AG100; experiment: as above
How it was run: as §1

[7] = tested on: E. coli β4; experiment: as above
How it was run: as §1

[8] = tested on: K. pneumoniae 2011E; experiment: as above; conditions: K. pneumoniae 2011E
How it was run: as §1

[9] = tested on: K. pneumoniae β10; experiment: as above; conditions: K. pneumoniae β10
How it was run: as §1

[10] = tested on: K. pneumoniae β11; experiment: as above; conditions: K. pneumoniae β11
How it was run: as §1

[11] = tested on: K. pneumoniae β13; experiment: as above; conditions: K. pneumoniae β13
How it was run: as §1

[12] = tested on: K. pneumoniae β14; experiment: as above
How it was run: as §1

[13] = tested on: K. pneumoniae β9; experiment: as above; conditions: K. pneumoniae β9
How it was run: as §1

[14] = tested on: M. catarrhalis 2524; experiment: as above; conditions: M. catarrhalis 2524
How it was run: as §1

[15] = tested on: P. aeruginosa 1912E; experiment: as above
How it was run: as §1

[16] = tested on: P. aeruginosa 37; experiment: as above
How it was run: as §1

[17] = tested on: P. aeruginosa 40; experiment: as above
How it was run: as §1

[18] = tested on: P. aeruginosa 43; experiment: as above; conditions: P. aeruginosa 43
How it was run: as §1

[19] = tested on: P. aeruginosa 6065Y; experiment: as above
How it was run: as §1

[20] = tested on: A. baumannii (6 clinical isolates); experiment: Antibacterial activity on representative drug-resistance bacteria: number of clinical isolates per MIC value; conditions: A. baumanni (N = 6)
Method: (§2) The in vitro antibacterial activity was evaluated by measuring MIC90 (ug/mL) of each of the compounds of Examples 1 to 68, which is defined as the lowest concentration of an antibiotic that will inhibit the visible growth of 90% of microorganisms after incubation as compared with a control group to which the antibiotic is not treated. MIC90 values were measured by the broth microdilution method developed by the Clinical and Laboratory Standards Institute (CLSI) (see CLSI M7-A5, Methods for Dilution Antimicrobial Susceptibility Test for Bacteria that Grow Aerobically-Fifth Edition (2000): CLSI, Villanova, Pa.).
(§3) Test compounds each (the cephalosporin derivative compounds prepared in Examples 1 to 68) were dissolved in DMSO at the concentration of 10,240 ug/mL, were diluted by two fold with DMSO, and then were diluted by twenty fold with sterilized distilled water. The final concentration in the antibacterial activity test was in the range of […] to 128 ug/mL, and the final concentration of DMSO used as an adjuvant was 2.5% (V/V).

[21] = tested on: K. pneumoniae (38 clinical isolates); experiment: as above; conditions: K. pneumomiae (N = 38)
Method: as §2, §3

[22] = tested on: P. aeruginosa (16 clinical isolates); experiment: as above; conditions: P. aeruginosa (N = 16)
Method: as §2, §3

[23] = tested on: 19 clinical isolates; experiment: In vitro antibacterial activity test, panel of 19 clinical isolates as a whole; conditions: effect of a siderophore group, Table 1
Method: To evaluate antibacterial activity of each of the compounds of Examples 1 to 68, in vitro antibacterial activity test was performed.
as §2
In vitro antibacterial activity was measured with respect to the following 19 clinical isolates: M. catarrhalis; P. aeruginosa (5 strains); K. pneumoniae (6 strains); A. baumannii (3 strains); E. coli (2 strains); A. calcoaceticus; and E. cloacae.
as §3

[24] = Acinetobacter baumannii, read-out: MIC90
[25] = Klebsiella pneumoniae, read-out: MIC90
[26] = Pseudomonas aeruginosa, read-out: MIC90

## CC(C)(O/N=C(\C(=O)N[C@@H]1C(=O)N2C(C(=O)[O-])=C(/C=C/C[n+]3cnc(N)c(NCCNC(=O)c4cc(=O)c(O)cn4O)c3)CSC12)c1csc(N)n1)C(=O)O (stereo partly shown) [Compound 11]
[1]
  MIC90: 4 µg/mL (≈ 5 µM)
[2]
  MIC90: >128 µg/mL
[3]
  MIC90: >128 µg/mL
[4]
  MIC90: 1 µg/mL (≈ 1.25 µM)
[5]
  MIC90: 64 µg/mL (≈ 80 µM)
[6]; E. coli AG100
  MIC90: 0.125 µg/mL (≈ 0.156 µM)
[7]
  MIC90: 0.125 µg/mL (≈ 0.156 µM)
[8]
  MIC90: 0.5 µg/mL (≈ 0.625 µM)
[9]
  MIC90: <0.0625 µg/mL
[10]
  MIC90: >128 µg/mL
[11]
  MIC90: <0.0625 µg/mL
[12]
  MIC90: 8 µg/mL (≈ 10 µM)
[13]
  MIC90: <0.0625 µg/mL
[14]
  MIC90: 0.25 µg/mL (≈ 0.313 µM)
[15]
  MIC90: 1 µg/mL (≈ 1.25 µM)
[16]; P. aeruginosa 37
  MIC90: 1 µg/mL (≈ 1.25 µM)
[17]; P. aeruginosa 40
  MIC90: 0.5 µg/mL (≈ 0.625 µM)
[18]
  MIC90: 1 µg/mL (≈ 1.25 µM)
[19]
  MIC90: 4 µg/mL (≈ 5 µM)
[20]; MIC 2 ug/mL
  number of clinical isolates that showed the respective MIC value: 1
[20]; MIC >16 ug/mL
  number of clinical isolates that showed the respective MIC value: 5
[21]; MIC 0.5 ug/mL
  number of clinical isolates that showed the respective MIC value: 1
[21]; MIC 2 ug/mL
  number of clinical isolates that showed the respective MIC value: 1
[21]; MIC 8 ug/mL
  number of clinical isolates that showed the respective MIC value: 1
[21]; MIC >16 ug/mL
  number of clinical isolates that showed the respective MIC value: 35
[22]; MIC 0.125 ug/mL
  number of clinical isolates that showed the respective MIC value: 1
[22]; MIC 0.5 ug/mL
  number of clinical isolates that showed the respective MIC value: 3
[22]; MIC 1 ug/mL
  number of clinical isolates that showed the respective MIC value: 2
[22]; MIC 2 ug/mL
  number of clinical isolates that showed the respective MIC value: 2
[22]; MIC 4 ug/mL
  number of clinical isolates that showed the respective MIC value: 3
[22]; MIC 8 ug/mL
  number of clinical isolates that showed the respective MIC value: 2
[22]; MIC 16 ug/mL
  number of clinical isolates that showed the respective MIC value: 1
[22]; MIC >16 ug/mL
  number of clinical isolates that showed the respective MIC value: 2
[23]
  antibacterial activity (in words): significantly improved

## CC(C)(O/N=C(\C(=O)N[C@@H]1C(=O)N2C(C(=O)[O-])=C(/C=C/C[n+]3cnc(N)c(NCCNC(=O)c4cc(=O)c(O)cn4O)c3)CSC12)c1nc(N)sc1Cl)C(=O)O (stereo partly shown) [Compound 26]
[1]; [24]
  MIC90: 2 µg/mL (≈ 2.4 µM)
[2]; [24]
  MIC90: 16 µg/mL (≈ 19.2 µM)
[3]; [24]
  MIC90: 2 µg/mL (≈ 2.4 µM)
[4]; Acinetobacter calcoaceticus, read-out: MIC90
  MIC90: 0.5 µg/mL (≈ 0.599 µM)
[5]; Enterobacter cloacae, read-out: MIC90
  MIC90: 0.125 µg/mL (≈ 0.15 µM)
[6]; Escherichia coli, AG100, E. coli AG100, read-out: MIC90
  MIC90: < 0.0625 µg/mL
[7]; Escherichia coli, read-out: MIC90
  MIC90: < 0.0625 µg/mL
[8]; Klebsiella pneumoniae, 2011E, read-out: MIC90
  MIC90: 0.5 µg/mL (≈ 0.599 µM)
[9]; [25]
  MIC90: < 0.0625 µg/mL
[10]; [25]
  MIC90: 0.5 µg/mL (≈ 0.599 µM)
[11]; [25]
  MIC90: < 0.0625 µg/mL
[12]; [25]
  MIC90: 4 µg/mL (≈ 4.79 µM)
[13]; [25]
  MIC90: 0.125 µg/mL (≈ 0.15 µM)
[14]; Moraxella catarrhalis, read-out: MIC90
  MIC90: < 0.0625 µg/mL
[15]; Pseudomonas aeruginosa, 1912E, read-out: MIC90
  MIC90: 0.25 µg/mL (≈ 0.3 µM)
[16]; Pseudomonas aeruginosa, 37, P. aeruginosa 37, read-out: MIC90
  MIC90: < 0.0625 µg/mL
[17]; Pseudomonas aeruginosa, 40, P. aeruginosa 40, read-out: MIC90
  MIC90: < 0.0625 µg/mL
[18]; [26]
  MIC90: 0.25 µg/mL (≈ 0.3 µM)
[19]; [26]
  MIC90: 0.5 µg/mL (≈ 0.599 µM)
[20]; MIC 0.5 ug/mL
  number of clinical isolates that showed the respective MIC value: 1
[20]; MIC 8 ug/mL
  number of clinical isolates that showed the respective MIC value: 2
[20]; MIC >16 ug/mL
  number of clinical isolates that showed the respective MIC value: 3
[21]; MIC 0.25 ug/mL
  number of clinical isolates that showed the respective MIC value: 1
[21]; MIC 0.5 ug/mL
  number of clinical isolates that showed the respective MIC value: 2
[21]; MIC 1 ug/mL
  number of clinical isolates that showed the respective MIC value: 3
[21]; MIC 2 ug/mL
  number of clinical isolates that showed the respective MIC value: 1
[21]; MIC 8 ug/mL
  number of clinical isolates that showed the respective MIC value: 4
[21]; MIC 16 ug/mL
  number of clinical isolates that showed the respective MIC value: 4
[21]; MIC <0.0625 ug/mL
  number of clinical isolates that showed the respective MIC value: 1
[21]; MIC >16 ug/mL
  number of clinical isolates that showed the respective MIC value: 22
[22]; MIC 0.0625 ug/mL
  number of clinical isolates that showed the respective MIC value: 1
[22]; MIC 0.25 ug/mL
  number of clinical isolates that showed the respective MIC value: 2
[22]; MIC 0.5 ug/mL
  number of clinical isolates that showed the respective MIC value: 3
[22]; MIC 1 ug/mL
  number of clinical isolates that showed the respective MIC value: 1
[22]; MIC 2 ug/mL
  number of clinical isolates that showed the respective MIC value: 2
[22]; MIC 4 ug/mL
  number of clinical isolates that showed the respective MIC value: 3
[22]; MIC 8 ug/mL
  number of clinical isolates that showed the respective MIC value: 1
[22]; MIC >16 ug/mL
  number of clinical isolates that showed the respective MIC value: 3
[23]
  antibacterial activity (in words): significantly improved
